Assay results: patent publication US10597388B2, “Pyridazinone herbicides” (FMC CORPORATION, priority 2014, dated 2020)
Like-named read-outs stand apart in the source and are kept apart here.

Key:
Type in all cases: in vivo
[1] = system: barnyardgrass (Echinochloa crus-galli); assay: Test A greenhouse herbicide test, pre- and postemergence; settings: for pest or weed control at 1000 g/ha / pest or weed control at 125 g/ha / pest or weed control at 500 g/ha: Echinochloa crus-galli, 240 h; for pest or weed control at 1000 g/ha: 1000 g ai/ha; for pest or weed control at 1000 g/ha / pest or weed control at 500 g/ha: 0 to 100 scale
In short: (§1)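 Seeds in loam–sand blend received a preemergence directed soil spray; plants at 2–10 cm, one- to two-leaf stage, received postemergence sprays. Compounds in a non-phytotoxic solvent with surfactant. After about 10 d in a greenhouse, injury rated visually versus untreated controls on a 0–100 scale (100 = complete control).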

[2] = system: pigweed (Amaranthus retroflexus); assay: as above; settings: for pest or weed control at 1000 g/ha / pest or weed control at 125 g/ha / pest or weed control at 500 g/ha: Amaranthus retroflexus, 240 h; for pest or weed control at 1000 g/ha: 1000 g ai/ha; for pest or weed control at 1000 g/ha / pest or weed control at 500 g/ha: 0 to 100 scale
In short: as §1

[3] = system: rice (Oryza sativa); assay: Test B flooded paddy test; settings: 250 g ai/ha, Flood, visual rating on scale of 0 to 100 where 0 is no effect and 100 is complete control, 13 to 15 d after treatment; for plant injury at 250 g/ha: Oryza sativa, 360 h, read-out: Plant response rating, Rice
In short: (§2)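 Plants grown to the 2-leaf stage. At treatment, pots were flooded to 3 cm above the soil, compound was applied directly to the paddy water, and that depth was held throughout. After 13 to 15 d in the greenhouse, response was rated visually against controls on a 0 (no effect) to 100 (complete control) scale.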

[4] = system: barnyardgrass (Echinochloa crus-galli); assay: Test B flooded paddy test; settings: 250 g ai/ha, Flood, visual rating on scale of 0 to 100 where 0 is no effect and 100 is complete control, 13 to 15 d after treatment; for pest or weed control at 250 g/ha: Echinochloa crus-galli, 360 h, read-out: Plant response rating, Barnyardgrass
In short: as §2

[5] = system: sedge, umbrella (small-flower umbrella sedge, Cyperus difformis); assay: Test B flooded paddy test; settings: 250 g ai/ha, Flood, visual rating on scale of 0 to 100 where 0 is no effect and 100 is complete control, 13 to 15 d after treatment; for pest or weed control at 250 g/ha: Cyperus difformis, 360 h, read-out: Plant response rating, Sedge, Umbrella
In short: as §2

[6] = system: ducksalad (Heteranthera limosa); assay: Test B flooded paddy test; settings: 250 g ai/ha, Flood, visual rating on scale of 0 to 100 where 0 is no effect and 100 is complete control, 13 to 15 d after treatment; for pest or weed control at 250 g/ha: Heteranthera limosa, 360 h, read-out: Plant response rating, Ducksalad
In short: as §2

[7] = system: kochia (Kochia scoparia); assay: Test C greenhouse herbicide test, postemergence
In short: (§3)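 Seedlings are raised in pots of peat moss–vermiculite medium with starter nutrients, then receive postemergence test chemical at the 1- to 4-leaf stage. They are kept in the greenhouse 13 to 15 d and scored visually versus controls, 0 meaning no effect and 100 complete control.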

[8] = system: oat, wild (wild oat, Avena fatua); assay: Test C greenhouse herbicide test, postemergence
In short: as §3

[9] = system: chickweed (common chickweed, Stellaria media); assay: Test C greenhouse herbicide test, postemergence
In short: as §3

[10] = system: ragweed (common ragweed, Ambrosia elatior); assay: Test A greenhouse herbicide test, pre- and postemergence
In short: as §1

[11] = system: kochia (Kochia scoparia); assay: as above
In short: as §1

[12] = post-emergence, Postemergence, 0 is no effect, 100 is complete control, read-out: Barnyardgrass plant response rating
[13] = pre-emergence, Preemergence, 0 no effect, 100 complete control, read-out: Plant response rating, Barnyardgrass
[14] = post-emergence, Postemergence, 0 is no effect, 100 is complete control, read-out: Pigweed plant response rating
[15] = pre-emergence, Preemergence, 0 no effect, 100 complete control, read-out: Plant response rating, Pigweed
[16] = Postemergence, 31 g ai/ha, 0 to 100 scale (0 no effect, 100 complete control)
[17] = Postemergence, 125 g ai/ha, scale 0 to 100, 0 is no effect, 100 is complete control
[18] = Postemergence, 250 g ai/ha, scale 0 to 100, 0 no effect, 100 complete control, 13 to 15 d
[19] = postemergence, 62 g ai/ha, scale 0 to 100, 0 no effect, 100 complete control
[20] = Postemergence, 125 g ai/ha, 0 to 100 scale where 0 is no effect and 100 is complete control
[21] = Postemergence, 500 g ai/ha, visual rating after approx. 10 d, 0 to 100 scale (0 no effect, 100 complete control)
[22] = Preemergence, 125 g ai/ha, 0 to 100 scale where 0 is no effect and 100 is complete control
[23] = Preemergence, 500 g ai/ha, 0 to 100 scale where 0 is no effect and 100 is complete control
[24] = Postemergence, 31 g ai/ha, scale 0 to 100 (0 no effect, 100 complete control)
[25] = Postemergence, 62 g ai/ha, 0 to 100 scale (0 no effect, 100 complete control)
[26] = postemergence, 125 g ai/ha, scale 0 to 100, 0 no effect, 100 complete control

CCc1oc2ccc(C)cc2c1-c1c(O)c(C)nn(C)c1=O [Compound 10, 4-(2-ethyl-5-methyl-3-benzofuranyl)-5-hydroxy-2,6-dimethyl-3(2H)-pyridazinone]
pest or weed control at 1000 g/ha [1, 12]: 90% | pest or weed control at 1000 g/ha [1, 13]: 100% | pest or weed control at 1000 g/ha [2, 14]: 90% | pest or weed control at 1000 g/ha [2, 15]: 100% | plant injury at 250 g/ha [3]: 0% | pest or weed control at 250 g/ha [4]: 0% | pest or weed control at 250 g/ha [5]: 0% | pest or weed control at 250 g/ha [6]: 30% | Kochia plant response rating [7, 16]: 60 | Plant response rating, Kochia [7, 17]: 95 | Plant response rating, Kochia [7, 18]: 95 | Kochia plant response rating [7, 19]: 85 | Oat, Wild plant response rating [8, 16]: 5 | Plant response rating, Oat, Wild [8, 17]: 5 | Plant response rating, Oat, Wild [8, 18]: 25 | Oat, Wild plant response rating [8, 19]: 5 | Chickweed plant response rating [9, 16]: 90 | Plant response rating, Chickweed [9, 17]: 90 | Plant response rating, Chickweed [9, 18]: 90 | Chickweed plant response rating [9, 19]: 90

Cc1nn(C)c(=O)c(-c2cccc3ccccc23)c1O [Compound 11, 5-hydroxy-2,6-dimethyl-4-(1-naphthalenyl)-3(2H)-pyridazinone]
pest or weed control at 1000 g/ha [1, 12]: 80% | pest or weed control at 1000 g/ha [1, 13]: 90% | pest or weed control at 1000 g/ha [2, 14]: 90% | pest or weed control at 1000 g/ha [2, 15]: 100% | plant injury at 250 g/ha [3]: 0% | pest or weed control at 250 g/ha [4]: 0% | pest or weed control at 250 g/ha [5]: 0% | pest or weed control at 250 g/ha [6]: 0% | Kochia plant response rating [7, 16]: 85 | Plant response rating, Kochia [7, 17]: 100 | Plant response rating, Kochia [7, 18]: 100 | Kochia plant response rating [7, 19]: 95 | Oat, Wild plant response rating [8, 16]: 40 | Plant response rating, Oat, Wild [8, 17]: 60 | Plant response rating, Oat, Wild [8, 18]: 70 | Oat, Wild plant response rating [8, 19]: 45 | Chickweed plant response rating [9, 16]: 60 | Plant response rating, Chickweed [9, 17]: 85 | Plant response rating, Chickweed [9, 18]: 90 | Chickweed plant response rating [9, 19]: 65

Cc1cc(C)c2sc(C)c(-c3c(O)c(C)nn(C)c3=O)c2c1 [Compound 2, 5-hydroxy-2,6-dimethyl-4-(2,5,7-trimethylbenzo[b]thien-3-yl)-3(2H)-pyridazinone]
pest or weed control at 125 g/ha ([1]; post-emergence, Postemergence, 125 g ai/ha, visual rating after approx. 10 d, 0 to 100 scale (0 no effect, 100 complete control), read-out: Plant response rating, Barnyardgrass): 30% | pest or weed control at 500 g/ha ([1]; post-emergence, Postemergence, 500 g ai/ha, 0 is no effect, 100 is complete control, read-out: Barnyardgrass plant response rating): 80% | pest or weed control at 125 g/ha ([1]; pre-emergence, Preemergence, 125 g ai/ha, 0 to 100 scale where 0 is no effect and 100 is complete control, read-out: Barnyardgrass plant response rating): 50% | pest or weed control at 500 g/ha ([1]; pre-emergence, Preemergence, 500 g ai/ha, 0 no effect, 100 complete control, read-out: Plant response rating, Barnyardgrass): 80% | pest or weed control at 125 g/ha ([2]; post-emergence, Postemergence, 125 g ai/ha, visual rating after approx. 10 d, 0 to 100 scale (0 no effect, 100 complete control), read-out: Plant response rating, Pigweed): 100% | pest or weed control at 500 g/ha ([2]; post-emergence, Postemergence, 500 g ai/ha, 0 is no effect, 100 is complete control, read-out: Pigweed plant response rating): 100% | pest or weed control at 125 g/ha ([2]; pre-emergence, Preemergence, 125 g ai/ha, 0 to 100 scale where 0 is no effect and 100 is complete control, read-out: Pigweed plant response rating): 100% | pest or weed control at 500 g/ha ([2]; pre-emergence, Preemergence, 500 g ai/ha, 0 no effect, 100 complete control, read-out: Plant response rating, Pigweed): 100% | plant injury at 250 g/ha [3]: 35% | pest or weed control at 250 g/ha [4]: 30% | pest or weed control at 250 g/ha [5]: 85% | pest or weed control at 250 g/ha [6]: 80% | Kochia plant response rating [7, 16]: 50 | Plant response rating, Kochia [7, 17]: 65 | Plant response rating, Kochia [7, 18]: 75 | Kochia plant response rating [7, 19]: 55 | Oat, Wild plant response rating [8, 16]: 75 | Plant response rating, Oat, Wild [8, 17]: 90 | Plant response rating, Oat, Wild [8, 18]: 85 | Oat, Wild plant response rating [8, 19]: 80 | Chickweed plant response rating [9, 16]: 95 | Plant response rating, Chickweed [9, 17]: 95 | Plant response rating, Chickweed [9, 18]: 98 | Chickweed plant response rating [9, 19]: 95

CCC(=O)Oc1c(C)nn(C)c(=O)c1-c1ccc(Br)c2ccccc12 [Compound 134]
Plant response rating, Ragweed [10, 20]: 100 | Plant response rating, Ragweed [10, 21]: 100 | Ragweed plant response rating [10, 22]: 80 | Plant response rating, Ragweed [10, 23]: 90 | Plant response rating, Kochia [11, 20]: 100 | Plant response rating, Kochia [11, 21]: 100 | Kochia plant response rating [11, 22]: 70 | Plant response rating, Kochia [11, 23]: 100 | Plant response rating, Barnyardgrass [1, 20]: 20 | Plant response rating, Barnyardgrass [1, 21]: 60 | Barnyardgrass plant response rating [1, 22]: 20 | Plant response rating, Barnyardgrass [1, 23]: 90 | Plant response rating, Pigweed [2, 20]: 90 | Plant response rating, Pigweed [2, 21]: 100 | Pigweed plant response rating [2, 22]: 100 | Plant response rating, Pigweed [2, 23]: 100 | Plant response rating, Rice [3]: 0 | Plant response rating, Barnyardgrass [4]: 0 | Plant response rating, Sedge, Umbrella [5]: 0 | Plant response rating, Ducksalad [6]: 0 | Plant response rating, Kochia [7, 24]: 95 | Kochia plant response rating [7, 25]: 100 | Plant response rating, Kochia [7, 18]: 100 | Kochia plant response rating [7, 26]: 100 | Plant response rating, Oat, Wild [8, 24]: 90 | Oat, Wild plant response rating [8, 25]: 90 | Plant response rating, Oat, Wild [8, 18]: 95 | Oat, Wild plant response rating [8, 26]: 95
